Holding throughout (format): cell-based
One experiment deals with B. subtilis ATCC 6633. Kind of experiment: MIC by agar dilution, B. subtilis ATCC 6633. The settings on record: Bacillus subtilis, ATCC6633, 17 h; B. subtilis ATCC 6633; agar dilution, Mueller-Hinton agar; read-out: Minimal Inhibitory Concentration (MIC). A digest of the protocol:
(§1)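 Minimum inhibitory concentrations come from Mueller-Hinton agar plates with two-fold compound steps, inoculated at 10^6 CFU per ml and incubated 17±1 hours at 35°-37° C.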
For orientation: Agar dilution tests growth on a series of plates holding different concentrations.

Another experiment concerns Staph. aureus ATCC 6538P. Briefly: MIC by agar dilution, Staph. aureus ATCC 6538P. The conditions noted are these: Staphylococcus aureus, ATCC6538P, 17 h; Staph. aureus ATCC 6538P; agar dilution, Mueller-Hinton agar; read-out: Minimal Inhibitory Concentration (MIC). A digest of the protocol:
as §1

Another experiment relates to Staph. aureus Smith. Briefly: MIC by agar dilution, Staph. aureus Smith. The conditions noted are these: Staphylococcus aureus, 17 h, Mueller-Hinton agar, read-out: Minimal Inhibitory Concentration (MIC). In outline:
as §1

For another experiment, the system named is Staph. aureus C-57. Briefly: MIC by agar dilution, Staph. aureus C-57. The settings on record: Staphylococcus aureus, C57, 17 h, Mueller-Hinton agar, read-out: Minimal Inhibitory Concentration (MIC). A digest of the protocol: as §1
The subject of a further experiment is Staph. aureus C-5113. Briefly: MIC by agar dilution, Staph. aureus C-5113. The conditions noted are these: Staphylococcus aureus, C5113, 17 h, Mueller-Hinton agar, read-out: Minimal Inhibitory Concentration (MIC). A digest of the protocol: as §1
The next experiment relates to Staph. aureus C-5216. Kind of experiment: MIC by agar dilution, Staph. aureus C-5216. The conditions noted are these: Staphylococcus aureus, C5216, 17 h, Mueller-Hinton agar, read-out: Minimal Inhibitory Concentration (MIC). In outline: as §1
Experiment [1] concerns S. epidermidis ATCC 12228. Briefly: MIC by agar dilution, S. epidermidis ATCC 12228. The settings on record: Staphylococcus epidermidis, ATCC12228, 17 h; S. epidermidis ATCC 12228; agar dilution, Mueller-Hinton agar; read-out: Minimal Inhibitory Concentration (MIC). A digest of the protocol: as §1
Another experiment has as its system Ent. aerogenes IFO 12979. Briefly: MIC by agar dilution, Ent. aerogenes IFO 12979. The settings on record: Klebsiella aerogenes, IFO12979, 17 h, Mueller-Hinton agar, read-out: Minimal Inhibitory Concentration (MIC). In outline:
as §1

A further experiment deals with Ent. cloacae IFO 13535. Kind of experiment: MIC by agar dilution, Ent. cloacae IFO 13535. The settings on record: Enterobacter cloacae, IFO13535, 17 h; Ent. cloacae IFO 13535; agar dilution, Mueller-Hinton agar; read-out: Minimal Inhibitory Concentration (MIC). In outline: as §1
A further experiment concerns E. coli NIHJ JC-2. Kind of experiment: MIC by agar dilution, E. coli NIHJ JC-2. The conditions noted are these: Escherichia coli, NIHJJC2, 17 h; E. coli NIHJ JC-2; agar dilution, Mueller-Hinton agar; read-out: Minimal Inhibitory Concentration (MIC). A digest of the protocol:
as §1

A further experiment relates to E. coli No. 29. Kind of experiment: MIC by agar dilution, E. coli No. 29. The conditions noted are these: Escherichia coli, 17 h; E. coli No. 29; agar dilution, Mueller-Hinton agar; read-out: Minimal Inhibitory Concentration (MIC). In outline: as §1
The next experiment concerns E. coli DY-1. Briefly: MIC by agar dilution, E. coli DY-1. The conditions noted are these: Escherichia coli, DY1, 17 h; E. coli DY-1; agar dilution, Mueller-Hinton agar; read-out: Minimal Inhibitory Concentration (MIC). In outline:
as §1

For a further experiment, the system named is K. pneumoniae NCTC 9632. Briefly: MIC by agar dilution, K. pneumoniae NCTC 9632. The settings on record: Klebsiella pneumoniae, NCTC9632, 17 h; K. pneumoniae NCTC 9632; agar dilution, Mueller-Hinton agar; read-out: Minimal Inhibitory Concentration (MIC). A digest of the protocol: as §1
For a further experiment, the system named is M. morganii DY-1. Kind of experiment: MIC by agar dilution, M. morganii DY-1. The conditions noted are these: Morganella morganii, DY1, 17 h; M. morganii DY-1; agar dilution, Mueller-Hinton agar; read-out: Minimal Inhibitory Concentration (MIC). A digest of the protocol:
as §1

The subject of experiment [2] is Ps. aeruginosa ATCC 10145. Kind of experiment: MIC by agar dilution, Ps. aeruginosa ATCC 10145. The settings on record: Pseudomonas aeruginosa, ATCC10145, 17 h, Mueller-Hinton agar, read-out: Minimal Inhibitory Concentration (MIC). A digest of the protocol: as §1
For experiment [3], the system named is Ps. aeruginosa NCTC 10490. Briefly: MIC by agar dilution, Ps. aeruginosa NCTC 10490. The conditions noted are these: Pseudomonas aeruginosa, NCTC10490, 17 h, Mueller-Hinton agar, read-out: Minimal Inhibitory Concentration (MIC). In outline: as §1
A further experiment concerns Ps. aeruginosa DY-2. Kind of experiment: MIC by agar dilution, Ps. aeruginosa DY-2. The conditions noted are these: Pseudomonas aeruginosa, DY2, 17 h; Ps. aeruginosa DY-2; agar dilution, Mueller-Hinton agar; read-out: Minimal Inhibitory Concentration (MIC). In outline: as §1
The subject of the next experiment is P. vulgaris NCTC 8313. Briefly: MIC by agar dilution, P. vulgaris NCTC 8313. The conditions noted are these: Proteus vulgaris, NCTC8313, 17 h; P. vulgaris NCTC 8313; agar dilution, Mueller-Hinton agar; read-out: Minimal Inhibitory Concentration (MIC). A digest of the protocol: as §1
The subject of another experiment is Prov. stuartii IFO 12930. Kind of experiment: MIC by agar dilution, Prov. stuartii IFO 12930. The conditions noted are these: Providencia stuartii, IFO12930, 17 h, Mueller-Hinton agar, read-out: Minimal Inhibitory Concentration (MIC). A digest of the protocol: as §1
Experiment [4] deals with Ser. marcescens IFO 12648. Briefly: MIC by agar dilution, Ser. marcescens IFO 12648. The conditions noted are these: Serratia marcescens, IFO12648, 17 h; Ser. marcescens IFO 12648; agar dilution, Mueller-Hinton agar; read-out: Minimal Inhibitory Concentration (MIC). A digest of the protocol: as §1

Values after ≈ are worked out from the molar mass of the structure shown.

For the compound `CO/N=C(\C(=O)N[C@@H]1C(=O)N2C(C(=O)[O-])=C(C[n+]3ccn4cccc4c3C)CS[C@H]12)c1nc(N)sc1Cl` [Ex. 56, 7-β-[(Z)-2-(2-amino-5-chlorothiazol-4-yl)-2-methoxyiminoacetamido]-3-(1-methylpyrrolo[1,2-a]-pyrazinium-2-yl)methyl-3-cephem-4-carboxylate], the MIC with B. subtilis ATCC 6633 was determined as 0.2 µg/mL (≈ 0.356 µM); in the experiment with Staph. aureus ATCC 6538P, 0.05 µg/mL (≈ 0.089 µM); in the experiment with Staph. aureus Smith, 0.39 µg/mL (≈ 0.694 µM); in the experiment with Staph. aureus C-57, 3.13 µg/mL (≈ 5.57 µM); in the experiment on Staph. aureus C-5113, 0.78 µg/mL (≈ 1.39 µM); in the experiment with Staph. aureus C-5216, 0.78 µg/mL (≈ 1.39 µM). For the same compound, the MIC in [1] is 0.1 µg/mL (≈ 0.178 µM); in the experiment with Ent. aerogenes IFO 12979, 0.1 µg/mL (≈ 0.178 µM); with Ent. cloacae IFO 13535, 0.78 µg/mL (≈ 1.39 µM); in the experiment with E. coli NIHJ JC-2, 0.2 µg/mL (≈ 0.356 µM); in the experiment on E. coli No. 29, 0.05 µg/mL (≈ 0.089 µM); in the experiment with E. coli DY-1 it was 0.05 µg/mL (≈ 0.089 µM). Moreover, the MIC in the experiment on K. pneumoniae NCTC 9632 was found to be 0.1 µg/mL (≈ 0.178 µM); in the experiment on M. morganii DY-1, 0.39 µg/mL (≈ 0.694 µM); in experiment [2], 1.56 µg/mL (≈ 2.78 µM); in [3], 0.78 µg/mL (≈ 1.39 µM); in the experiment on Ps. aeruginosa DY-2, 3.13 µg/mL (≈ 5.57 µM); in the experiment on P. vulgaris NCTC 8313 it was 0.012 µg/mL (≈ 0.0214 µM). For the same compound, the MIC was found to be 0.012 µg/mL (≈ 0.0214 µM) in the experiment with Prov. stuartii IFO 12930 and 0.2 µg/mL (≈ 0.356 µM) in experiment [4].
In the case of `CO/N=C(\C(=O)N[C@@H]1C(=O)N2C(C(=O)[O-])=C(C[n+]3ccn4c(SCCO)ccc4c3)CS[C@H]12)c1nc(N)sc1Cl` [Ex. 52, 7-β-[(Z)-2-(2-amino-5-chlorothiazol-4-yl)-2-methoxyiminoacetamido]-3-[6-(2-hydroxyethylthio)pyrrolo[1,2-a]-pyrazinium-2-yl]methyl-3-cephem-4-carboxylate], the MIC with B. subtilis ATCC 6633 is 0.1 µg/mL (≈ 0.16 µM); with Staph. aureus ATCC 6538P, 0.2 µg/mL (≈ 0.32 µM); in the experiment on Staph. aureus Smith, 1.56 µg/mL (≈ 2.5 µM); in the experiment on Staph. aureus C-57 it was 6.25 µg/mL (≈ 10 µM); in the experiment on Staph. aureus C-5113, 1.56 µg/mL (≈ 2.5 µM); in the experiment with Staph. aureus C-5216 it was 0.78 µg/mL (≈ 1.25 µM). Besides, the MIC stood at 0.1 µg/mL (≈ 0.16 µM) in experiment [1]; 0.1 µg/mL (≈ 0.16 µM) in the experiment on Ent. aerogenes IFO 12979; 0.78 µg/mL (≈ 1.25 µM) with Ent. cloacae IFO 13535; 0.2 µg/mL (≈ 0.32 µM) in the experiment with E. coli NIHJ JC-2; 0.1 µg/mL (≈ 0.16 µM) with E. coli No. 29; 0.025 µg/mL (≈ 0.0401 µM) with E. coli DY-1. Further, the MIC in the experiment with K. pneumoniae NCTC 9632 was found to be 0.1 µg/mL (≈ 0.16 µM); in the experiment on M. morganii DY-1, 0.2 µg/mL (≈ 0.32 µM); in experiment [2], 1.56 µg/mL (≈ 2.5 µM); in experiment [3], 1.56 µg/mL (≈ 2.5 µM); in the experiment with Ps. aeruginosa DY-2, 12.5 µg/mL (≈ 20 µM); in the experiment with P. vulgaris NCTC 8313, 0.012 µg/mL (≈ 0.0192 µM). The MIC with Prov. stuartii IFO 12930 was determined as 0.025 µg/mL (≈ 0.0401 µM); in [4], 0.2 µg/mL (≈ 0.32 µM).
Turning to `CCON=C(C(=O)NC1C(=O)N2C(C(=O)[O-])=C(C[n+]3ccn4cccc4c3)CSC12)c1csc(N)n1` (stereo not drawn) [Ex. 3, 7-β-[(Z)-2-(2-aminothiazol-4-yl)-2-ethoxyiminoacetamido]-3-(pyrrolo[1,2-a]pyrazinium-2-yl)methyl-3-cephem-4-carboxylate], the MIC with B. subtilis ATCC 6633 is 0.1 µg/mL (≈ 0.19 µM); in the experiment with Staph. aureus ATCC 6538P it was 0.1 µg/mL (≈ 0.19 µM); with Staph. aureus Smith it was 0.39 µg/mL (≈ 0.739 µM); in the experiment on Staph. aureus C-57, 6.25 µg/mL (≈ 11.8 µM); in the experiment with Staph. aureus C-5113 it was 0.39 µg/mL (≈ 0.739 µM); with Staph. aureus C-5216, 0.39 µg/mL (≈ 0.739 µM). Moreover, the MIC in experiment [1] is 0.025 µg/mL (≈ 0.0474 µM); in the experiment with Ent. aerogenes IFO 12979 it was 0.012 µg/mL (≈ 0.0227 µM); in the experiment with Ent. cloacae IFO 13535, 0.2 µg/mL (≈ 0.379 µM); in the experiment on E. coli NIHJ JC-2 it was 0.025 µg/mL (≈ 0.0474 µM); with E. coli No. 29, at most 0.006 µg/mL; in the experiment on E. coli DY-1, at most 0.006 µg/mL. Moreover, the MIC was at most 0.006 µg/mL with K. pneumoniae NCTC 9632; at most 0.006 µg/mL in the experiment on M. morganii DY-1; 0.2 µg/mL (≈ 0.379 µM) in experiment [2]; 0.2 µg/mL (≈ 0.379 µM) in [3]; 0.78 µg/mL (≈ 1.48 µM) with Ps. aeruginosa DY-2; at most 0.006 µg/mL in the experiment on P. vulgaris NCTC 8313. Moreover, the MIC in the experiment on Prov. stuartii IFO 12930 was 0.012 µg/mL (≈ 0.0227 µM); in experiment [4] it was at most 0.006 µg/mL.

(Values after patent US5593984A, “Cephalosporin derivatives” (Yuhan Corporation, priority 1992, dated 1997).)
